Assay [1] concerns FHs74 cells. Conditions: previous study; cited from earlier work.
The test system of assay [2] is FR on FHs74 cells. Nature of the assay: Folate receptor blocking studies in FHs74 cells. The format is cell-based, human. Conditions: blocking of P2Ns-NAR uptake. The text has this: FR Specificity to NAR. The FR-mediated transport of P2Ns-NAR was confirmed by performing blocking studies. Folic acid (FA) strongly binds to FR, with the FA frequently being employed as a targeting ligand on nanoparticles for receptor-mediated drug delivery.^29,30 On the other hand, FA in larger doses is also associated with adverse side effects including toxicity to humans.^16,31,32 The use of NAR as an FR-specific ligand could potentially overcome this limitation and provide a safer alternative for receptor-mediated drug delivery. Selective blockade of FR on FHs74 cells was performed to evaluate the FR-mediated uptake of P2Ns-NAR. Cells were saturated with varying concentrations of blocking agents: antifolate antibody (AB), FA, and MTHFA.

Regarding `Nc1nc2ncc(CNc3ccc(C(=O)N[C@@H](CCC(=O)O)C(=O)O)cc3)nc2c(=O)[nH]1` [FA, Folic acid], in assay [1], the “Time to saturate FHs74 cells” value is “less than 1 hour”.

`CN1c2c(nc(N)[nH]c2=O)NCC1CNc1ccc(C(=O)N[C@@H](CCC(=O)O)C(=O)O)cc1` (some centres unmarked) [MTHFA, methyltetrahydrofolic acid]: the “Concentration of blocking agent needed for blocking levels similar to FA” value in assay [2] was “Higher concentrations”.
